From patent US20240216369A1, “THE USE OF A SPLICING MODULATOR FOR A TREATMENT SLOWING PROGRESSION OF HUNTINGTON'S DISEASE” (Novartis AG, priority 2019, published 2024) come the findings set out here.

Entries after “also recorded” stand apart in the source; their conditions may differ.

In one data set the test system is total HTT transcript. Put plainly: Repeat oral dosing in BacHD mice: total HTT transcript in blood. It counts as in vivo. The following applies: 12 or 24 mg/kg oral, thrice weekly for three weeks; listed as branaplam. As to the method:
For the repeat dosing study, twenty-four BacHD mice (FVB/N-Tg(HTT*97Q)IXwy/J transgenic mice—Jackson Laboratories) were used for the experiment. Animal protocols were approved by the Children's Hospital of Philadelphia Institutional Animal Care and use Committee. Mice were housed in a temperature-controlled environment on a 12-h light/dark cycle. Food and water were provided ad libitum.
For the repeat dosing study, branaplam or vehicle was administered by oral gavage 3 times a week for 3 consecutive weeks. Mice were divided in 4 groups (n=6 mice/group) and treated with branaplam (12 mg/kg—1 group, or 24 mg/kg—2 groups), or vehicle (1 groups) as control. […] The amount of branaplam or vehicle administrated to each mouse was based on the weight recorded the day of dosing. […]
RNA from blood was extracted using PAXgene blood RNA kit (Qiagen) according to manufacturer protocol. The RNA was quantified by Nanodrop 2000 (Thermo Scientific). cDNAs were synthesized from 140-400 ng RNA using Maxima First strand cDNA synthesis kit using a mix of oligo dT and random hexamers (Thermo Scientific) in 20 uL reaction at 25° C. for 10 min, 50° C. for 15 min then 85° C. for 5 min. Quantitative PCR was performed using Taqman Fast Advanced master mix (Thermo Scientific) in 20 uL with 4 uL of cDNA reaction and primers specific for each genes. […]

Data set [1] in a line: Pediatric ACAT/PBPK model (Type 1 SMA patients). Details: species or system human. The following applies: Type 1 SMA patients 33-39 months; optimized on observed data. The source says: The pharmacokinetic (PK) model in adult subjects was developed using an Advanced Compartmental And Transit (ACAT)/Physiologically Based Pharmacokinetic (PBPK) model in GastroPlus™ software, Version 9.6 (SimulationPlus, Lancaster, CA, USA).
• Principle set-up of a pediatric ACAT/PBPK model in GastroPlus™ software including physico-chemical parameters, physiological parameters, and formulation factors. The ACAT model was linked to a full PBPK model in which tissue-to-plasma concentration ratios were estimated via in silico method provided by GastroPlus™ software. • Estimation of the clearance (CL) using plasma concentrations of branaplam from an open-label multi-part first-in-human proof of concept study of oral branaplam, Part 1 only. The aim of Part 1 of this study was to determine the safety and tolerability of ascending weekly doses and to estimate the maximum tolerated dose (MTD) of oral/enteral branaplam (formulation described in Example 3) in infants with Type 1 SMA. All patients had exactly 2 copies of the SMN2 gene. Patients were dosed once weekly with branaplam. The branaplam doses were escalated in subsequent cohorts until MTD was determined or when PK results confirmed that the MTD could not be reached due to a potential pharmacokinetic exposure plateau at higher doses. The starting dose referring to the free base was 6 mg/m^2 (equal to 0.3125 mg/kg). Subsequent doses were 12 mg/m^2, 24 mg/m^2, 48 mg/m^2 and 60 mg/m^2 (0.625 mg/kg, 1.25 mg/kg, 2.5 mg/kg and 3.125 mg/kg, respectively). 14 patients were enrolled in Part 1; 13 patients were exposed to branaplam. The duration of exposure ranged from 4-33 months, 7 patients remain in the study. Six of the 7 patients are receiving 60 mg/m^2, 1 patient is receiving 48 mg/m^2.
Observed plasma concentrations of branaplam in 33-39 months old Type 1 SMA patients after nominal branaplam doses of 60 mg/m^2 (3.125 mg/kg, first-in-human proof of concept study with branaplam as described above) were used to build the pediatric ACAT/PBPK by means of GastroPlus™ software. […]

Regarding `CC1(C)CC(Oc2ccc(-c3ccc(-c4cn[nH]c4)cc3O)nn2)CC(C)(C)N1` [Compound 18, 5-(1H-pyrazol-4-yl)-2-(6-((2,2,6,6-tetramethylpiperidin-4-yl)oxy)pyridazin-3-yl)phenol], the “total HTT transcript in blood” value with total HTT transcript is “robust lowering; also recorded: lowers”. Besides, in data set [1], the Vc is on record as 3.62 (Optimized value using GastroPlus ™ based on the 1/h, the k12 is 1.41 (Optimized value using GastroPlus ™ based on the 1/h and the k21 was 0.144 (Optimized value using GastroPlus ™ based on the 1/h.
